Source: patent publication US10031125B2, “Diagnosis and treatment of invasive aspergillosis” (THE BRIGHAM AND WOMEN'S HOSPITAL, INC., priority 2012, dated 2018)
Starred links: 1 amine or outer side, 2 acyl side, 3 side chain; linkers in the order of their positions; H or OH if unused. Positions of bridges follow the written chain, without caps; N, C: chain ends. Non-standard residues stand in square brackets, D forms with d. Residues, ends and D or L forms follow the SMILES beside them. *: point of attachment. hTyr(3S-OH,4S-OH,3'-OSO3H) = N[C@H](C(=O)O)[C@H](O)[C@@H](O)c1ccc(O)c(OS(=O)(=O)O)c1; Orn(4R-OH,5R-OH) = O=C([C@H](C[C@@H](O)[C@@H](O)N[*:3])N[*:1])[*:2]; Pro(3S-OH,4S-Me) = C[C@H]1CN[C@H](C(=O)O)[C@H]1O; X1 = CCCCCOc1ccc(-c2cc(-c3ccc(C(=O)*)cc3)no2)cc1; Gln(3R-OH) = NC(=O)C[C@@H](O)[C@H](N)C(=O)O; Hyp = O=C(O)[C@@H]1C[C@@H](O)CN1

Legend:
A. terreus = conditions: some isolates; Baddley et al., J. Clin. Microbiol. 2009; cited from earlier work
Aspergillus fumigatus = assay: Antifungal exposure modulates the release of VOCs in A. fumigatus in vitro (headspace GC-MS); type: cell-based; conditions: for change in key A. fumigatus VOC features at 24 hours: compared to matched control samples
Description: For each experiment, 10^4 conidia were inoculated into 5 mL of microbial media (either nutrient Yeast Extract Peptone Dextrose (YPD) broth, nutrient poor Aspergillus minimal media (Pontecorvo et al., Advan Genet 1953; 5:141-238), or under iron-starved, alkaline stress, or nitrogen-depleted conditions (McDonagh et al., PLoS Pathog 2008; 4:e1000154)) in 20 mL glass vials with an airtight crimp top incorporating a rubber septum. Cultures were incubated for 24-144 hours at 200 rpm and 37° C. and headspace gas was dynamically adsorbed, using argon carrier gas and an air sampling pump calibrated to 20 mL/minute, onto Markes thermal desorption traps containing tandem beds of Tenax TA (200 mg), Carbograph 1 TD (100 mg), and Carboxen 1003 (100 mg), optimized to retain VOCs of diverse size and polarity.
Headspace VOCs were also collected after exposure of a subset of fungal isolates to the antifungal drugs voriconazole, liposomal amphotericin B, and micafungin, each at a concentration of […].
VOCs were desorbed onto a dual GC-MS/DMS system (FIG. 1)—the eluent from the gas chromatograph was split between the MS, to allow identification of each compound, and the DMS, an extremely sensitive and selective gas detector that can be easily used as a point-of-care gas detection device, to determine the mobility pattern for each compound. The NIST MS Search 2.0 Library was used to identify VOCs in the total ion chromatogram (TIC) of the GC-MS data. Differences in spectral features of DMS output were visually distinguished between the positive ion spectra of A. fumigatus and A. terreus and principal component analysis (PCA) was used to evaluate the degree of class discrimination between these fungal species using algorithms in MATLAB (Version R2012a).
Whether exposure to antifungal drugs might modulate VOC release in Aspergillus fumigatus was assessed in vitro.

[1] = added to 48-hour hyphal cultures, after 24 hours, 1.0 mg/mL

Structure (SMILES)	susceptibility of A. terreus isolates (A. terreus)	increase in some of the key A. fumigatus VOC features (Aspergillus fumigatus; added to 48-hour hyphal cultures, after 24 hours, compared to matched control samples without drug, 1.0 mg/mL) [fold]	change in key A. fumigatus VOC features at 24 hours (Aspergillus fumigatus; [1])	key A. fumigatus VOC features with longer incubation (Aspergillus fumigatus; longer duration of incubation and hyphal death)
C[C@@H]1[C@H](O)[C@@H](C)/C=C/C=C/C=C/C=C/C=C/C=C/C=C/[C@H](O[C@@H]2O[C@H](C)[C@@H](O)[C@H](N)[C@@H]2O)C[C@@H]2O[C@](O)(C[C@@H](O)C[C@@H](O)[C@H](O)CC[C@@H](O)C[C@@H](O)CC(=O)O[C@H]1C)C[C@H](O)[C@H]2C(=O)O [AMB, amphotericin B]	resistant			
CCCCCOc1ccc(-c2cc(-c3ccc(C(=O)N[C@H]4C[C@@H](O)[C@@H](O)NC(=O)[C@@H]5[C@@H](O)[C@@H](C)CN5C(=O)[C@H]([C@H](O)CC(N)=O)NC(=O)[C@H]([C@H](O)[C@@H](O)c5ccc(O)c(OS(=O)(=O)O)c5)NC(=O)[C@@H]5C[C@@H](O)CN5C(=O)[C@H]([C@@H](C)O)NC4=O)cc3)no2)cc1 [micafungin] (X1-[Orn(4R-OH,5R-OH)]T[Hyp][hTyr(3S-OH,4S-OH,3'-OSO3H)][Gln(3R-OH)][Pro(3S-OH,4S-Me)]; lactam 1-C)		≤ 17	initial increase	attenuation
C[C@@H](c1ncncc1F)[C@](O)(Cn1cncn1)c1ccc(F)cc1F [voriconazole]			near-complete attenuation	
